Measurements as given in the supplement of paper PMC10290057.

Tests used:
[1] = test system: HCT116; experiment: AC50 cell viability (CellTiter-Glo); higher = less potent; details: 48 h
[2] = test system: HCT116; experiment: efficacy (fitted maximal change in viability relative to DMSO control); higher = less cytotoxic (negative = loss of viability); details: 48 h
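Wherever AC50 cell viability (CellTiter-Glo) is given: HCT116 colorectal carcinoma cells screened at five concentrations per compound, luminescent viability scaled between DMSO wells and empty wells on each plate, curves fitted per compound.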
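Wherever efficacy (fitted maximal change in viability relative to DMSO control) is given: Luminescence-based viability readout, five doses per compound, normalized against on-plate DMSO and empty-well controls, followed by dose-response curve fitting for every drug.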

Row | SMILES | AC50 cell viability [1] | efficacy [2]
1 | c1cc(-c2cnn3cc(-c4ccc(N5CCNCC5)cc4)cnc23)c2cccnc2c1 | 6.61 µM | -81.9%
2 | c1ccc2c(-c3cnn4cc(-c5ccc(OCCN6CCOCC6)cc5)cnc34)ccnc2c1 | 6.45 µM | -84.3%
3 | CC(/C=C/[C@@H]1C[C@]1(C)c1ccc2c(c1)C(C)(C)CCC2(C)C)=C\C(=O)O | 23.5 µM | -66.8%
4 | CC(C)c1ccc(Cn2ccc3c4c(N)nc(NC5CC5)nc4ccc32)cc1 | 0.332 µM | -102%
5 | CC(C)c1noc(N2CCC(COc3ccc(-c4ccc([S+](C)(=O)[O-])cc4)nc3)CC2)n1 | 3.72 µM | -32.3%
6 | Cc1c(C(=O)Nc2cccc(C(F)(F)F)c2)cc(-c2ccccc2)n1CCCN1CCOCC1 | 20.9 µM | -75.8%
7 | Cc1cnc(Nc2ccc(OCCN3CCCC3)cc2)nc1Nc1cccc([S+](=O)([O-])NC(C)(C)C)c1 | 2.63 µM | -109%
8 | Cc1cccc(Nc2nc(N[C@@H]3CCCC[C@@H]3N)ncc2C(N)=O)c1 | 7.42 µM | -94.8%
9 | Cc1cccc(Nc2nc(-c3ccncc3)cs2)c1 | 18.6 µM | -69.9%
10 | Cc1c[nH]c(-c2cnc(NCCNc3ccc(C#N)cn3)nc2-c2ccc(Cl)cc2Cl)n1 | 26.3 µM | -72.6%
11 | Cc1nc2ccc(-n3ncc(C(=O)c4cc5ccccc5[nH]4)c3N)cc2[nH]1 | 8.33 µM | -71.3%
12 | Cc1n[nH]c2ccc(-c3cncc(OC[C@@H](N)Cc4c[nH]c5ccccc45)c3)cc12 | 0.417 µM | -80.2%
13 | CC1CC2=CC=CC=C2N1C(=O)C\C3=N\C(=O)\C=C(/N3)N4CCOCC4 (centres undefined) | 18.6 µM | -57.5%
14 | CCN(CC)CCOC1=CC=C(NC2=NC=C3\C=C(/C(=O)N(C)C3=N2)C4=C(Cl)C=CC=C4Cl)C=C1 | 1.18 µM | -86.9%
15 | CN(C)CCCN\C1=C\2C(=O)N(C)C(=O)\N=C2N(C)C3=C1C=CC=C3 | 5.25 µM | -67.5%
16 | CN(C)CCN(C)C(=O)c1ccc(NC(=O)Nc2ccc(-c3nc(N4CCOCC4)c4ccn(CC(F)(F)F)c4n3)cc2)cc1 | 0.263 µM | -118%
17 | CN(C)CCOc1ccc(-c2nc(-c3ccncc3)c(-c3ccc4c(c3)CC/C4=N\O)[nH]2)cc1 | 11.8 µM | -134%
18 | CNC(=O)Cn1cc(-c2ccc3c(c2)C(F)CC32NC(=O)N(CC(=O)N(Cc3ccc(F)cc3)[C@@H](C)C(F)(F)F)C2=O)cn1 (some centres undefined) | 0.742 µM | -47.8%
19 | COc1cc(C)c(Sc2cnc(NC(=O)c3ccc(CNC(C)C(C)(C)C)cc3)s2)cc1C(=O)N1CCN(C(C)=O)CC1 (centres undefined) | 11.8 µM | -110%
20 | COc1ccccc1N1CCN(CCN(C(=O)C2CCCCC2)c2ccccn2)CC1 | 13.2 µM | -31.7%
21 | COc1ccccc1[C@H](c1cccc2ccccc12)[C@@](C)(C#N)C(=O)N1CCC(c2cccc(C(F)(F)F)c2)CC1 | 0.833 µM | -39.8%
22 | COC1=C(NC2=NC=C(Cl)C(=N2)N[C@@H]3[C@H]\4C[C@@H](\C=C4)[C@H]3C(N)=O)C=CC5=C1CCC(CC5)N6CCOCC6 (some centres undefined) | 4.17 µM | -74.2%
23 | COc1cc2nc(N3CCCN(C)CC3)nc(NC3CCN(Cc4ccccc4)CC3)c2cc1OC | 6.61 µM | -95.2%
24 | COc1cc2c(Nc3ccc(NC(=O)c4ccccc4)cc3)ncnc2cc1OCCCN1CCOCC1 | 18.6 µM | -120%

Row | SMILES | AC50 cell viability [1] | efficacy [2]
25 | COc1ccc(OC)c(-c2nnc3ccc(-c4ccc(OC)c(O[C@@H]5CCOC5)c4)nn23)c1 | 2.95 µM | -66.5%
26 | COc1cc(C(=O)NC2CCN(C)CC2)ccc1Nc1ncc2c(n1)N(C1CCCC1)CCC(=O)N2C(C)C | 14.8 µM | -107%
27 | COc1cc2nc(-c3cc(F)ccc3O)nc(N[C@@H]3CNC[C@H]3C(C)(C)O)c2cc1OC | 3.72 µM | -87.7%
28 | COc1ccc2nc3[nH]nc(C)c3c(NCCOCCO)c2c1 | 18.6 µM | -82.9%
29 | COCC(=O)NC/C=C/c1ccc2ncnc(Nc3ccc(Oc4ccc(C)nc4)c(C)c3)c2c1 | 20.9 µM | -64.8%
30 | COCCOc1ccc2c(c1)ncn2-c1ccc2cccc(N3CCC(N)CC3)c2n1 | 2.95 µM | -85.5%
31 | Cc1nc([C@](C)(O)CO)sc1-c1cnc(N)c(O[C@H](C)c2cc(F)ccc2-n2nccn2)c1 | 3.72 µM | -57.7%
32 | C[C@H](CN(C)C)Oc1nc(Nc2cc3cccc(Cl)c3cn2)cnc1C#N | 3.32 µM | -31.2%
33 | CC(=O)N1c2ccc(-c3ccc(C(=O)O)cc3)cc2[C@H](Nc2ccc(Cl)cc2)C[C@@H]1C | 0.833 µM | -90.5%
34 | C[C@H]1C[C@@H](n2c(Nc3ccc(OC(F)(F)F)cc3)nc3cc(CCC(=O)O)ccc32)CC(C)(C)C1 | 20.9 µM | -65%
35 | C[C@@]1(c2ncncc2F)NC(=O)c2cc(-c3cn[nH]c3)ccc21 | 14.8 µM | -101%
36 | C[N]1C=C(C=N1)C2=C3\C=N/NC(=O)C4=C3C(=CC(=C4)NC(=O)[C@H](N)C5CCCCC5)[NH]2 | 16.6 µM | -67.8%
37 | C/N=c1\ncc2cc(-c3cc(N/C(O)=N/CCC(C)(C)C)c(F)cc3C)c(C)nc2[nH]1 | 2.63 µM | -82.1%
38 | O=C(Nc1cnccc1Cl)N1CCN(Cc2ccc3c(c2)OC(F)(F)O3)CC1 | 14.8 µM | -56.5%
39 | Nc1ncnc(Nc2ccc(OCc3ccccc3)c(Cl)c2)c1/C=N/OCCN1CCOCC1 | 26.3 µM | -98%
40 | Nc1ncnc2c1c(COc1cccc(Cl)c1)nn2C1CCOCC1 | 18.6 µM | -37.2%
41 | O=C(NC1CC1)c1cccc(-c2ccc3c(NC(=O)C4CC4)n[nH]c3c2)c1 | 9.34 µM | -52.3%
42 | O=C(O)c1ccc(O)c2ncc(N3CCOCC3)cc12 | 23.5 µM | -43%
43 | Oc1cc(-c2nc(-c3ccccc3)[nH]c2-c2ccncc2)ccc1Cl | 4.17 µM | -90.3%
44 | OC1CCC(CC1)N2\C=N/C3=C(C2=N)C(=C([N]3CC4=CC=CC=C4)C5=CC=CC=C5)C6=CC=CC=C6 (centres undefined) | 2.95 µM | -107%
45 | O=C(CC12CC3CC(CC(C3)C1)C2)Nc1cccc2nc(NCCNCCO)ccc12 | 26.3 µM | -101%
46 | O=C(N[C@H]1CCC[C@H](CO)C1)C1CCN(c2nc3cc(Cl)c(-c4ccc(Cl)cc4)cc3o2)CC1 | 23.5 µM | -83.2%
47 | O=C(Nc1ncc(SCCN2CCCC2)s1)[C@]1(c2ccc([S+](=O)([O-])C3CC3)cc2)C[C@H]1C1CCCCC1 | 18.6 µM | -95.8%
